Laboratory results reported in paper PMC9738062, “Selectively Halogenated Flavonolignans—Preparation and Antibacterial Activity” (International Journal of Molecular Sciences, 2022).
Entries after “also recorded” stand apart in the source; their conditions may differ.

Experiments:
[1] = test system: Vibrio campbellii BAA 1118 (AI-1); assay: microbe, parasite or virus in culture; assay type: cell-based; conditions: for EC50: Vibrio campbellii, BAA1118, 16 h, read-out: EC50 (concentration that halved the communication); for SI (selectivity index): ratio IC50 (viability) / EC50 (communication), BAA 1118
Summary of the method: (§1)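 Mutant V. campbellii strains responding only to AI-1 (BAA-1118) or AI-2 (BAA-1119), seeded at 5 × 10^5 CFU/mL in Autoinducer Bioassay medium (potassium phosphate pH 7.0); compounds at final 0.2–200 µM.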

[2] = test system: Vibrio campbellii BAA 1119 (AI-2); assay: microbe, parasite or virus in culture; assay type: cell-based; conditions: for EC50: Vibrio campbellii, BAA1119, 16 h, read-out: EC50 (concentration that halved the communication); for SI (selectivity index): ratio IC50 (viability) / EC50 (communication), BAA 1119
Summary of the method: as §1

[3] = Folin-Ciocalteu reagent reduction; conditions: gallic acid equivalents
Summary of the method: (§2)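 ABTS and DPPH radical scavenging gauged antiradical activity. Reducing capacity was measured as reduction of Folin–Ciocalteu reagent and of ferric ions (FRAP).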

[4] = test system: multidrug-resistant S. aureus; assay: Sensitization of antibiotic-resistant bacteria (compound plus breakpoint antibiotic concentration); assay type: cell-based, Staphylococcus aureus; conditions: for Effect on viability in combination with chloramphenicol: chloramphenicol 8 mg/L; for Effect on viability in combination with chloramphenicol / Effect on viability in combination with gentamicin: flavonoid 40 µM, 24 h; for Effect on viability in combination with gentamicin: gentamicin 1 mg/L
Summary of the method: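 A multidrug-resistant clinical isolate of S. aureus from the General University Hospital in Prague was grown in Mueller–Hinton broth with flavonoid derivatives combined with a EUCAST breakpoint concentration of antibiotic. MIC was determined according to ISO 20776-1: 2020, and viability was read as absorbance at A590 nm after 24 h at 37 °C and 150 rpm.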

[5] = test system: pooled male rat microsomal liver membranes; assay: Inhibition of lipid peroxidation induced by tert-butyl hydroperoxide; assay type: biochemical; conditions: male rat microsomes, read-out: ILP IC50
Procedure: The antiradical activity was evaluated by the ability to scavenge ABTS and DPPH radicals. Reducing capacity was assessed by the ability to reduce the Folin–Ciocalteu reagent (FCR) and ferric ions (FRAP). The ability to inhibit lipid peroxidation of pooled male rat microsomal liver membranes induced by tert-butyl hydroperoxide was also evaluated and the results were expressed as IC50 values.

[6] = test system: lipopolysaccharide-stimulated macrophages (RAW 264.7); assay: Inhibition of nitric oxide production (Griess reagent); assay type: cell-based, murine; conditions: Mus musculus, RAW264.7; LPS 100 ng/mL, 24 h; highest tested concentration 100 µM; read-out: NO Production IC50
Summary of the method: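 RAW 264.7 macrophages seeded at 1 × 10^6 cells/mL and stimulated with bacterial lipopolysaccharide. After 24 h, medium was mixed 1:1 with Griess reagent (0.04 g/mL) and absorbance read at 540 nm after 15 min. Viability by resazurin.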

[7] = test system: multidrug-resistant P. aeruginosa; assay: Sensitization of antibiotic-resistant bacteria (compound plus breakpoint antibiotic concentration); assay type: cell-based, Pseudomonas aeruginosa; conditions: for Effect on viability in combination with colistin: colistin 2 mg/L; for Effect on viability in combination with colistin / Effect on viability in combination with imipenem: flavonoid 40 µM, 24 h; for Effect on viability in combination with imipenem: imipenem 4 mg/L; on Effect on viability in combination with imipenem: key: -: no effect (100% viability) was observed up to the highest flavonolignan concentration tested (>40 µM); reversion of resistance: the compound reversed the resistant phenotype to a sensitive one
Summary of the method: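 A multidrug-resistant clinical isolate of P. aeruginosa, obtained from the General University Hospital in Prague and resistant to colistin and imipenem among other drugs, was grown in Mueller–Hinton broth. Flavonoid derivatives at up to 40 µM were combined with EUCAST breakpoint antibiotic concentrations. MIC was determined per ISO 20776-1: 2020, with viability read as A590 nm after 24 h at 37 °C, 150 rpm.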

DPPH radical scavenging = conditions: 1,1-diphenyl-2-picrylhydrazyl radical scavenging
Summary of the method: as §2

SMILES | EC50 [1] [µM] | SI (selectivity index) [1] | EC50 [2] [µM] | SI (selectivity index) [2] | FCR [GAE] [3] [GAE] | Effect on viability in combination with chloramphenicol [4] | IC50 [5] [µM] | IC50 [6] [µM] | Effect on viability in combination with colistin [7] | Effect on viability in combination with imipenem [7] | IC50 (DPPH radical scavenging) [µM] | Effect on viability in combination with gentamicin [4] | Colistin-resistant phenotype of P. aeruginosa (result in words) ([7]; colistin breakpoint concentration) | Gentamicin-resistant phenotype of S. aureus (result in words) ([4]; gentamicin breakpoint concentration, compound 40 µM)
O=C1c2c(O)c(Br)c(O)c(Br)c2O[C@H](c2ccc(O)c(O)c2)[C@H]1O [compound 8, 6,8-dibromotaxifolin] | 38.1 ± 2 | 1.5 ± 0.1 | 10.1 ± 0.4 | 10.8 ± 0.6 | 2.08 ± 0.04 | - | 22.5 ± 1 | 62.2 ± 4.2 | - | - | 4.37 |  |  | 
O=c1c(O)c(-c2ccc(O)c(O)c2)oc2c(Br)c(O)cc(O)c12 [compound 9, 8-bromoquercetin] | 25.6 ± 0.5 | 1.08 ± 0.04 | 0.4 ± 0.02 | 2.9 ± 0.3 | 2.01 ± 0.06 | - | 38.3 ± 1.9 | > 100 | - | - | 2.44 | - |  | 
O=c1c(O)c(-c2ccc(O)c(O)c2)oc2c(Br)c(O)c(Br)c(O)c12 [compound 10, 6,8-dibromoquercetin] | 7.3 ± 0.4 | 1.9 ± 0.2 | 0.7 ± 0.02 | 5.0 ± 0.3 | 1.70 ± 0.02 | - | 28.6 ± 1.1 | 40.6 ± 2.6 | - | - | 3.59 | - |  | 
COc1cc([C@H]2Oc3cc([C@H]4Oc5cc(O)c(Br)c(O)c5C(=O)[C@@H]4O)ccc3O[C@@H]2CO)ccc1O [compound 11, 6-Bromosilybin A] | 24.4 ± 0.7 | 2.1 ± 0.1 | 9.4 ± 0.5 | 5.5 ± 0.3 | 1.06 ± 0.04 | - | 449 | 40 ± 3.4 | - | - | 472 |  |  | 
COc1cc([C@H]2Oc3cc([C@H]4Oc5c(Br)c(O)c(Br)c(O)c5C(=O)[C@@H]4O)ccc3O[C@@H]2CO)ccc1O [compound 12, 6,8-dibromosilybin A] | 12.2 ± 0.4 | 1.9 ± 0.2 | 13.2 ± 0.3 | 6.1 ± 0.5 | 0.85 ± 0.03 | - | 710 | 73.9 ± 5.8 | - | - | 383 |  |  | 
COc1cc([C@@H]2Oc3cc([C@H]4Oc5cc(O)c(Br)c(O)c5C(=O)[C@@H]4O)ccc3O[C@H]2CO)ccc1O [compound 13, 6-Bromosilybin B] | 14.5 ± 0.5 | 1.11 ± 0.04 | 26.1 ± 1.3 | 2.0 ± 0.1 | 1.17 ± 0.04 | - | 728 | 37 ± 2.4 | - | - | 354 |  |  | 
COc1cc([C@@H]2Oc3cc([C@H]4Oc5c(Br)c(O)c(Br)c(O)c5C(=O)[C@@H]4O)ccc3O[C@H]2CO)ccc1O [compound 14, 6,8-dibromosilybin B] | 14.7 ± 0.7 | 1.1 ± 0.1 | 19.3 ± 0.5 | 3.1 ± 0.3 | 1.10 ± 0.05 | - | 378 | 90.4 ± 4.6 | - | - | 256 |  |  | 
COc1cc(C2Oc3cc(-c4oc5c(Br)c(O)cc(O)c5c(=O)c4O)ccc3OC2CO)ccc1O (stereo not shown) [compound 16, 8-bromo-2,3-dehydrosilybin AB] | > 200 |  | 6.9 ± 0.3 | 12.7 ± 1.0 | 1.56 ± 0.03 | - | 49.2 ± 1.9 | > 25 | reversion of resistance | - | 13.4 | - | reversed the colistin-resistant phenotype in P. aeruginosa to a sensitive one | 
COc1cc([C@@H]2Oc3c(O)cc(-c4oc5c(Br)c(O)cc(O)c5c(=O)c4O)cc3[C@H]2CO)ccc1O [compound 18, 8-Bromo-2,3-dehydrosilychristin A] | 29.4 ± 0.7 | 2.7 ± 0.1 | 10.5 ± 0.2 | 2.2 ± 0.1 | 2.22 | - | 60.1 ± 2.7 | 32.6 ± 1.8 | - | - | 11.1 ± 0.6 | - |  | 
COc1cc([C@H]2Oc3cc([C@H]4Oc5c(Br)c(O)c(Br)c(O)c5C(=O)[C@@H]4O)ccc3O[C@@H]2CO)cc(Br)c1O [compound 21, 6,8,21-tribromosilybin A] | > 200 |  | 30.7 ± 1.6 | ≥6.5 ± 0.3 | 0.99 ± 0.02 | - | 213 | 70.4 ± 1.7 | - | - | 375 | reversion of resistance |  | reversed the resistant phenotype to a sensitive one; also recorded: revert the resistant phenotype into a sensitive one
